Experiments:
[1] = biological target: T1, acyl CoA-cholesterol-acyl transferase (ACAT) (Mus musculus, UniProt Q61263); experiment: Determination of ACAT: inhibition of esterification of free intracellular cholesterol in macrophage line J 774; assay type: cell-based; conditions: J774; macrophage line J 774, 24 hours, 10^-5 M, relative to placebo; read-out: percentage inhibition of ACAT activity of the macrophages
T1 construct: in the presence of a macrophage J 774 homogenate; endogenous in cells; host or cells: J774 macrophage line
T1 sequence (Q61263 1-540): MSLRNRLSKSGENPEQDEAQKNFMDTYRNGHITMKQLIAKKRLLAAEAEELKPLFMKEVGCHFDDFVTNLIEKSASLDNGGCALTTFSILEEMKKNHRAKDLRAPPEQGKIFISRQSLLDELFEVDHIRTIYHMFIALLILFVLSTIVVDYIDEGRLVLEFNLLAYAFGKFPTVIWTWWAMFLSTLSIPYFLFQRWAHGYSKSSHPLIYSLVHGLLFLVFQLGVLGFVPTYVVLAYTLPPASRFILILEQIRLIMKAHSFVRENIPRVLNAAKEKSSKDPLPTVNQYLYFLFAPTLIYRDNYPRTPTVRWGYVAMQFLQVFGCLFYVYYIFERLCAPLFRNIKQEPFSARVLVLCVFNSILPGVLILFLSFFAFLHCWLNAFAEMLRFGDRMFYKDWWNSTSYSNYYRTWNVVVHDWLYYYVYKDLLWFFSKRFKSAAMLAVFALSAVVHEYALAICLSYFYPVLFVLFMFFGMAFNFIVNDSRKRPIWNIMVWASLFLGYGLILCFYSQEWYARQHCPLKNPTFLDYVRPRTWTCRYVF
Description: The test products or the placebo are incubated in the presence of the macrophages for 24 hours at the concentration of 10^-5 M. The efficacy of these compounds is evaluated by calculating the ACAT activity of the macrophages incubated in the presence of a product relative to that of macrophages incubated in the presence of the placebo and is therefore expressed as a percentage inhibition.

human LDLs = experiment: Modification of the LDLs by copper sulfate (MDA production, lipid peroxidation); assay type: biochemical; conditions: 24 hours, copper sulfate 5×10^-6 M; probucol as reference
Description: The human LDLs are incubated for 24 hours in the presence of copper sulfate (5×10^-6 M) with or without the test compounds (concentrations between 10^-7 M and 10^-4 M). After incubation, the peroxidation of the LDLs is evaluated by electrophoresis on agar gel and by the formation of one of the products of lipid peroxidation: malondialdehyde (MDA) according to the technique described by […] et al. (J. Clin. Invest. 77, 641-644, 1986).

[2] = biological target: T1, acyl CoA-cholesterol-acyl transferase (ACAT); experiment: Determination of ACAT: inhibition of esterification of free intracellular cholesterol in macrophage line J 774; assay type: cell-based
[3] = tested on: hypercholesterolemic hamsters; experiment: Effect in hypercholesterolemic hamsters (total plasma cholesterol); assay type: in vivo, Syrian golden hamsters; conditions: orally, 10 mg/kg/day
Description: Syrian golden hamsters were subjected to a 0.2% hypercholesterolemic diet for 3 weeks. They were then treated orally either by the vehicle for the compounds tested (control group), or by a reference product, or by an original product at the dose of 10 mg/kg/day for 2 weeks. At the end of the treatment, the total cholesterol was measured in the plasma.

| Structure (SMILES) | inhibition at 10 µM [1] | other results |
| --- | --- | --- |
| CCCCCC=CCC=CCC=CCCCCC(=O)Nc1cc(C)c(O)c(C)c1C [Example 23, 2,3,6-Trimethyl-4-(6,9,12-octadecatrienamido)phenol] | 94% |  |
| CCCCCCCCCCC1(C(=O)Nc2cc(C)c(O)c(C)c2C)CCCC1 [Example 57, 2,3,6-Trimethyl-4-[(1-decyl-cyclopent-1-yl)carboxamido]phenol] | 98% |  |
| CCCCCCCCCCCC(C)(C)C(=O)Nc1cc(C)c(O)c(C)c1C [Example 16, 2,3,6-Trimethyl-4-(2,2-dimethyltridecanamido)phenol] | 96% |  |
| CCCCCCCCCCC(C)(C)C(=O)Nc1c(OC)cc(OC)cc1OC [Ref. 2, 2,4,6-trimethoxy-(2,2-dimethyldodecanamido)benzene] |  | antioxidant activity towards human LDLs (in words) (human LDLs): completely lack this activity |
| CCCCCCCCCCC(C)(C)C(=O)Nc1cc(C)c(O)c(C)c1C [Example 15, 2,3,6-Trimethyl-4-(2,2-dimethyldodecanamido)phenol] | 93% |  |
| CCCCCCCCCC(C)C(=O)Nc1cc(C)c(O)c(C)c1C (stereo not drawn) [Example 4, 2,3,6-Trimethyl-4-(2-methylundecanamido)phenol] | 91% |  |
| CCCCCCCCCC(C)(C)C(=O)Nc1cc(C)c(O)c(C)c1C [Example 14, 2,3,6-Trimethyl-4-(2,2-dimethylundecanamido)phenol] | 92% |  |

Second part, led by results:

| inhibition at 10 µM [1] | Structure (SMILES) | other results |
| --- | --- | --- |
| 75% | CCCCCCCC/C=C\CCCCCCCC(=O)Nc1c(OC)cc(OC)cc1OC [Ref. 1, 2,4,6-trimethoxy-(9-(Z)octadecenamido)benzene] | antioxidant activity towards human LDLs (in words) (human LDLs): completely lack this activity; IC50 [2]: 3 µM |
| 97% | CCCCC/C=C\C/C=C\CCCCCCC(C)C(=O)Nc1cc(C)c(O)c(C)c1C (stereo not drawn) [Example 58, 2,3,6-Trimethyl-4-(2-methyl-9,12-octadecadienamido)phenol, cis, cis isomer] |  |
| 90% | CCCCC/C=C\C/C=C\CCCCCCCC(=O)Nc1cc(C)c(O)c(C)c1C [Example 21, 2,3,6-Trimethyl-4-(9,12-octadecadienamido)phenol cis, cis isomer] |  |
| 95% | CCCCCCCC/C=C\CCCCCCC(C)C(=O)Nc1cc(C)c(O)c(C)c1C (stereo not drawn) [Example 20, 2,3,6-Trimethyl-4-(2-methyl-9-octadecenamido)phenol cis isomer] | hypocholesterolemiant activity, level of total plasma cholesterol ([3]; 15 days (2 weeks), 0.2% hypercholesterolemic diet): normalizes the level of cholesterol in the hypercholesterolemic animals; hypocholesterolemiant activity compared with reference products (Ref. 1 and Ref. 2) ([3]; same conditions): considerably higher than that of the reference products tested |

From patent US5254590A, “Acylaminophenol compounds” (Adir et Compagnie, priority 1991, dated 1993)
